biological target: PI3Kα (alpha) (Homo sapiens (Human), UniProt P42336); test: p110α (alpha) PI3K Binding Assay (ADP-Glo lipid kinase reaction); assay type: biochemical; conditions: PI3K alpha 0.2 nM, ATP 40 μM, PIP2:3PS 50 μM, 120 min, room temperature; Ki by Morrison Equation; read-out: PI3Kα-(alpha) ATP (Ki) micromolar
Description: The ability of a compound of the invention to act as an inhibitor of PI3Kα was determined using the methods of Example 901.
PI3K Binding assays are intended for determining the biochemical potency of small molecule PI3K inhibitors. The PI3K lipid kinase reaction is performed in the presence of PIP2:3PS lipid substrate (Promega #V1792) and ATP. Following the termination if the kinase reaction, turnover of ATP to ADP by the phosphorylation of the lipid substrate is detected using the Promega ADP-Glo™ (Promega #V1792) assay. Reactions are carried out using the following conditions:
After 120 minutes of reaction time, the kinase reaction is terminated. Any ATP remaining after the reaction is depleted, leaving only ADP. Then the Kinase Detection Reagent is added to convert ADP to ATP, which is used in a coupled luciferin/luciferase reaction. The luminescent output is measured and is correlated with kinase activity.
All reactions are carried out at room temperature. A 3 μl mixture (1:1) of enzyme/lipid substrate solution is added to a 384 well white assay plate (Perkin Elmer #6007299) containing 50 nl of test compound or DMSO only for untreated controls. The reaction is started by the addition of 2 μl ATP/MgCl2. The kinase reaction buffer contains 50 mM HEPES, 50 mM NaCl, 3 mM MgCl2, 0.01% BSA, 1% DMSO, and enzyme and substrate concentrations as indicated in the above table. The reaction is stopped by the addition of 10 μL ADP-Glo reagent. Plates are read in a Perkin Elmer Envision system using luminescence mode. 10 point dose response curves are generated for each test compound. Ki values for each compound are determined using the Morrison Equation.

Chain of PI3Kα (alpha) (P42336 whole entry): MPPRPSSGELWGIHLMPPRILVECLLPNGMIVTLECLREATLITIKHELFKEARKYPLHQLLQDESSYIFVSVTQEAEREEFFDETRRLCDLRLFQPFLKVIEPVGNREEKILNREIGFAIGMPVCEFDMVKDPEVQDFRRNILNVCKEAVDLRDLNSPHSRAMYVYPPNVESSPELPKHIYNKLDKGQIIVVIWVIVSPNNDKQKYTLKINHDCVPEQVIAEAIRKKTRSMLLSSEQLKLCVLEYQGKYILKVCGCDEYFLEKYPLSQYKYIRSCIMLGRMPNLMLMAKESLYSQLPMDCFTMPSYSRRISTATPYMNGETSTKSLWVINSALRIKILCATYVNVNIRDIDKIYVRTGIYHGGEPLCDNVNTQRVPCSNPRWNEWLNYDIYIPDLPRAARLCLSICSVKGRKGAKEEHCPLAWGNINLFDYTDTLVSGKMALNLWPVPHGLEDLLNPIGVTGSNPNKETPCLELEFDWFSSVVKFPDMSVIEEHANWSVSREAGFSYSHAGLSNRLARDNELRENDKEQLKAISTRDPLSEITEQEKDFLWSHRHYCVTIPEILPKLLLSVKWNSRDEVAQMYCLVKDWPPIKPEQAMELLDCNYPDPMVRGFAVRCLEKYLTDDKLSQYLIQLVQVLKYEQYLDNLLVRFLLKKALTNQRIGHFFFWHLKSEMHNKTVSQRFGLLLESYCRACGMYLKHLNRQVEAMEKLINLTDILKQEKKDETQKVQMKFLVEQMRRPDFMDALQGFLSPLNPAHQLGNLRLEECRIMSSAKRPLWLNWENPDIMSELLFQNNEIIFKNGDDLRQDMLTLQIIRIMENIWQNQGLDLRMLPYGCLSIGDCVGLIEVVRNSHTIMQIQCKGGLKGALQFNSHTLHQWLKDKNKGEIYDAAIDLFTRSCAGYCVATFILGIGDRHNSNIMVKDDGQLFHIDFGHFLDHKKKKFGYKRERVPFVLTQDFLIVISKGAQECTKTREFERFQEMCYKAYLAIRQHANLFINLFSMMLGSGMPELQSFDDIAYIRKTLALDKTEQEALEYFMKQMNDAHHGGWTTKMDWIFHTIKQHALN
Chain of PI3Kα (alpha) (P27986 whole entry partner): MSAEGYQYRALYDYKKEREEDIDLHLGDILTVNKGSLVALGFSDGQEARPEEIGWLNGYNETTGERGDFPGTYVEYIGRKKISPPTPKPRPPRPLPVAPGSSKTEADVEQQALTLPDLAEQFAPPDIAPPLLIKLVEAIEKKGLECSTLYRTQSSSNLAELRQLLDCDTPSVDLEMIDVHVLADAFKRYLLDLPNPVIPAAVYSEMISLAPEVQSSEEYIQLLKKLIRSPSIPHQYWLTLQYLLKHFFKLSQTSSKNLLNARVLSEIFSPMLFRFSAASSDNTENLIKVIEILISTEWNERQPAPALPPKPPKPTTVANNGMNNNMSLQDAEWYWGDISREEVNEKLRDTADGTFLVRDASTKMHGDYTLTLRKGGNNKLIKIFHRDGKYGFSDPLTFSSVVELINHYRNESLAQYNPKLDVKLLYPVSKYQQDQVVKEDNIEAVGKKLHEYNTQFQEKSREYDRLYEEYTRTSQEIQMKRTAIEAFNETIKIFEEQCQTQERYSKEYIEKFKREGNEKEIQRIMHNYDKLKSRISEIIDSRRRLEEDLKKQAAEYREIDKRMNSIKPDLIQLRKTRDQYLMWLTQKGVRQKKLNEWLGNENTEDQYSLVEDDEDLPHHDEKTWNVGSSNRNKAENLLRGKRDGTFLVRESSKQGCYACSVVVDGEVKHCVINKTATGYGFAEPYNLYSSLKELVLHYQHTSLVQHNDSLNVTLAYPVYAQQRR

SMILES | Ki [nM]
COc1ccc(-c2nc3cc(N[C@@H](C)C(N)=O)cc4c3n2CCCO4)cn1 [Example 111, (S)-2-((1-(6-Methoxypyridin-3-yl)-8,9-dihydro-7H-6-oxa-2,9a-diazabenzo[cd]azulen-4-yl)amino)propanamide] | 11.6
C[C@H](Oc1cc2c3c(c1)nc(-c1ccc(-c4nc[nH]n4)cc1)n3CCCCO2)C(N)=O [Example 243, (S)-2-((1-(4-(1H-1,2,4-Triazol-3-yl)phenyl)-7,8,9,10-tetrahydro-6-oxa-2,10a-diazacycloocta[cd]inden-4-yl)oxy)propanamide] | < 0.02
Cn1cc(-c2nc3cc(N[C@H](C(N)=O)C4CC4)cc4c3n2CCCO4)ccc1=O [Example 147, (S)-2-Cyclopropyl-2-((1-(1-methyl-6-oxo-1,6-dihydropyridin-3-yl)-8,9-dihydro-7H-6-oxa-2,9a-diazabenzo[cd]azulen-4-yl)amino)acetamide] | 139
Cc1nn(C)cc1-c1nc2cc(N[C@H](C(N)=O)C3CC3)cc3c2n1CCCO3 [Example 160, (S)-2-Cyclopropyl-2-[1-(1,3-dimethyl-1H-pyrazol-4-yl)-8,9-dihydro-7H-6-oxa-2,9a-diazabenzo[cd]azulen-4-ylamino]acetamide] | 914
C[C@H](Nc1cc2c3c(c1)nc(-c1ccc(C#N)cn1)n3CCCO2)C(N)=O [Example 110, (S)-2-((1-(5-Cyanopyridin-2-yl)-8,9-dihydro-7H-6-oxa-2,9a-diazabenzo[cd]azulen-4-yl)amino)propanamide] | 261
NC(=O)[C@@H](Nc1cc2c3c(c1)nc(-c1ccc4ncsc4c1)n3CCCO2)C1CC1 [Example 178, (S)-2-((1-(Benzo[d]thiazol-6-yl)-8,9-dihydro-7H-6-oxa-2,9a-diazabenzo[cd]azulen-4-yl)amino)-2-cyclopropylacetamide] | 32.2
NC(=O)c1cc(-c2nc3cc(N[C@H](C(N)=O)C4CC4)cc4c3n2CCCO4)ccc1F [Example 157, (S)-5-(4-((2-Amino-1-cyclopropyl-2-oxoethyl)amino)-8,9-dihydro-7H-6-oxa-2,9a-diazabenzo[cd]azulen-1-yl)-2-fluorobenzamide] | 16.5
COc1ccc(-c2nc3cc(N[C@H](C(N)=O)C4CC4)cc4c3n2CCCO4)c(F)c1 [Example 144, (S)-2-Cyclopropyl-2-((1-(2-fluoro-4-methoxyphenyl)-8,9-dihydro-7H-6-oxa-2,9a-diazabenzo[cd]azulen-4-yl)amino)acetamide] | 340
C[C@H](Oc1cc2c3c(c1)nc(-c1cc(F)c4nc(N)sc4c1)n3CCCCO2)C(N)=O [Example 242, (S)-2-((1-(2-Amino-4-fluorobenzo[d]thiazol-6-yl)-7,8,9,10-tetrahydro-6-oxa-2,10a-diazacycloocta[cd]inden-4-yl)oxy)propanamide] | < 0.02
C[C@@H](Oc1cc2c3c(c1)nc(-c1ccc4nc(N)sc4c1F)n3CCCCO2)C(N)=O (single isomer, unassigned) [Example 287] | 1.71
C[C@H](Oc1cc2c3c(c1)nc(-c1ccc4nc(N)cnc4c1)n3CCCCO2)C(N)=O [Example 244, (S)-2-((1-(2-Aminoquinoxalin-6-yl)-7,8,9,10-tetrahydro-6-oxa-2,10a-diazacycloocta[cd]inden-4-yl)oxy)propanamide] | < 0.02
CS(=O)(=O)c1cc(-c2nc3cc(N[C@H](C(N)=O)C4CC4)cc4c3n2CCCO4)ccn1 [Example 159, (S)-2-Cyclopropyl-2-((1-(2-(methylsulfonyl)pyridin-4-yl)-8,9-dihydro-7H-6-oxa-2,9a-diazabenzo[cd]azulen-4-yl)amino)acetamide] | 87.2
Cc1cc(-c2nc3cc(N[C@H](C(N)=O)C4CC4)cc4c3n2CCCO4)nc(CO)n1 [Example 123, (S)-2-Cyclopropyl-2-((1-(2-(hydroxymethyl)-6-methylpyrimidin-4-yl)-8,9-dihydro-7H-6-oxa-2,9a-diazabenzo[cd]azulen-4-yl)amino)acetamide] | 45
NC(=O)[C@@H](Nc1cc2c3c(c1)nc(-c1ccc4nc(N)sc4c1)n3CCCCO2)C1CC1 [Example 214, (S)-2-((1-(2-Aminobenzo[d]thiazol-6-yl)-7,8,9,10-tetrahydro-6-oxa-2,10a-diazacycloocta[cd]inden-4-yl)amino)-2-cyclopropylacetamide] | < 0.02
Cc1cc(-c2nc3cc(N[C@H](C(N)=O)C4CC4)cc4c3n2CCCO4)cc2nc(N)oc12 [Example 205, (S)-2-((1-(2-Amino-7-methylbenzo[d]oxazol-5-yl)-8,9-dihydro-7H-6-oxa-2,9a-diazabenzo[cd]azulen-4-yl)amino)-2-cyclopropylacetamide] | 0.191
C[C@@H](Oc1cc2c3c(c1)nc(-c1ccc4oc(N)nc4c1)n3CCCCO2)C(N)=O [Example 245, (R)-2-((1-(2-Aminobenzo[d]oxazol-5-yl)-7,8,9,10-tetrahydro-6-oxa-2,10a-diazacycloocta[cd]inden-4-yl)oxy)propanamide] | 0.032
CC[C@H](Oc1cc2c3c(c1)nc(-c1cc(F)c(-c4ncn[nH]4)cc1F)n3CCCCO2)C(N)=O [Example 295, (S)-2-((1-(2,5-Difluoro-4-(1H-1,2,4-triazol-5-yl)phenyl)-7,8,9,10-tetrahydro-6-oxa-2,10a-diazacycloocta[cd]inden-4-yl)oxy)butanamide] | 0.053
CNc1nc2cc(-c3nc4cc(N[C@@H](C)C(N)=O)cc5c4n3CCCO5)ccc2o1 [Example 185, (S)-2-((1-(2-(Methylamino)benzo[d]oxazol-5-yl)-8,9-dihydro-7H-6-oxa-2,9a-diazabenzo[cd]azulen-4-yl)amino)propanamide] | 2.01
C[C@H](Oc1cc2c3c(c1)nc(-c1ccc(-c4ncn[nH]4)cc1F)n3CCCCO2)C(N)=O [Example 293, (S)-2-((1-(2-Fluoro-4-(1H-1,2,4-triazol-3-yl)phenyl)-7,8,9,10-tetrahydro-6-oxa-2,10a-diazacycloocta[cd]inden-4-yl)oxy)propanamide] | 0.0222
C[C@@H](C(N)=O)n1cc(-c2cc3c4c(c2)nc(-c2ccc5oc(N)nc5c2)n4CCCO3)cn1 [Example 219, (S)-2-(4-(1-(2-Aminobenzo[d]oxazol-5-yl)-8,9-dihydro-7H-6-oxa-2,9a-diazabenzo[cd]azulen-4-yl)-1H-pyrazol-1-yl)propanamide] | 0.242
C[C@H](Oc1cc2c3c(c1)nc(-c1cc(F)c4oc(N)nc4c1F)n3CCCCO2)C(N)=O [Example 261, (S)-2-((1-(2-Amino-4,7-difluorobenzo[d]oxazol-5-yl)-7,8,9,10-tetrahydro-6-oxa-2,10a-diazacycloocta[cd]inden-4-yl)oxy)propanamide] | < 0.02
CS(=O)(=O)c1ccc(-c2nc3cc(N[C@H](C(N)=O)C4CC4)cc4c3n2CCCO4)cc1 [Example 137, (S)-2-Cyclopropyl-2-((1-(4-(methylsulfonyl)phenyl)-8,9-dihydro-7H-6-oxa-2,9a-diazabenzo[cd]azulen-4-yl)amino)acetamide] | 916
NC(=O)[C@@H](Nc1cc2c3c(c1)nc(-c1ccc4nc(N)ncc4c1)n3CCCO2)C1CC1 [Example 120] | 5.34
NC(=O)[C@@H](Nc1cc2c3c(c1)nc(-c1ccc4nccnc4c1)n3CCCO2)C1CC1 [Example 117, (S)-2-Cyclopropyl-2-((1-(quinoxalin-6-yl)-8,9-dihydro-7H-6-oxa-2,9a-diazabenzo[cd]azulen-4-yl)amino)acetamide] | 1.18
COC(=O)c1cc(-c2nc3cc(N[C@H](C(N)=O)C4CC4)cc4c3n2CCCO4)ccc1OC [Example 158, (S)-Methyl 5-(4-((2-amino-1-cyclopropyl-2-oxoethyl)amino)-8,9-dihydro-7H-6-oxa-2,9a-diazabenzo[cd]azulen-1-yl)-2-methoxybenzoate] | 206
C[C@H](Oc1cc2c3c(c1)nc(-c1ccc(-c4ncn[nH]4)cn1)n3CCCCO2)C(N)=O [Example 296, (S)-2-((1-(5-(1H-1,2,4-Triazol-5-yl)pyridin-2-yl)-7,8,9,10-tetrahydro-6-oxa-2,10a-diazacycloocta[cd]inden-4-yl)oxy)propanamide] | < 0.02
NC(=O)[C@@H](Nc1cc2c3c(c1)nc(-c1cnc4c(c1)OCCO4)n3CCCO2)C1CC1 [Example 148, (S)-2-Cyclopropyl-2-((1-(2,3-dihydro-[1,4]dioxino[2,3-b]pyridin-7-yl)-8,9-dihydro-7H-6-oxa-2,9a-diazabenzo[cd]azulen-4-yl)amino)acetamide] | 59
NC(=O)[C@@H](Nc1cc2c3c(c1)nc(-c1cc(F)c4nccnc4c1)n3CCCO2)C1CC1 [Example 215, (S)-2-Cyclopropyl-2-((1-(8-fluoroquinoxalin-6-yl)-8,9-dihydro-7H-6-oxa-2,9a-diazabenzo[cd]azulen-4-yl)amino)acetamide] | 0.424

same assay, conditions: read-out: PI3Kα-(alpha) ATP (Ki) micromolar

SMILES | Ki [nM]
NC(=O)[C@@H]1CCCN1c1cc2c3c(nc(-c4ccc5oc(N)nc5c4)n3CCCCO2)c1F [Example 247, (S)-1-(1-(2-Aminobenzo[d]oxazol-5-yl)-3-fluoro-7,8,9,10-tetrahydro-6-oxa-2,10a-diazacycloocta[cd]inden-4-yl)pyrrolidine-2-carboxamide] | 0.024

Source: patent publication US10065970B2 (Genentech, Inc., priority 2015, dated 2018)
